Literature values in patent US20060235005A1, “Use of phosphodiesterase 5 (PDE5) inhibitors in the treatment of schizophrenia” (Oak Labs, Corp., priority 2005, published 2006).
Read-outs that look alike come from different tables or passages of the source.

Experiments:
[1] = system: animal models
[2] = system: schizophrenia patients; details: 8-week trial
[3] = system: rats; details: oral 0.3-1.0 mg kg-1, rats
[4] = system: anesthetized dogs; details: intravenous 1-300 μg kg-1, anesthetized dogs
[5] = system: patients with schizophrenia; details: compared with haloperidol
[6] = system: men with cardiovascular disease
[7] = system: cortical cGMP levels; details: subchronic administration, rats
[8] = system: hyperammonemic rats; details: chronic oral treatment for 28 days
[9] = system: rats; details: 3 mg/kg and 10 mg/kg p.o., at 24 hours
[10] = system: mice; details: 3 mg/kg, at 48 hours
[11] = system: mice; details: 2, 4, & 8 mg/kg
[12] = system: healthy young men; details: 100 mg
[13] = system: middle cerebral artery occlusion; details: 2-5 mg/kg daily for seven days, vs vehicle
[14] = system: rats
[15] = system: male schizophrenia patients
[16] = system: women affected by arousal disorders
[17] = in vivo
[18] = system: healthy subjects; details: single 20-mg dose
[19] = system: men with erectile dysfunction; details: phase III, including patients with cardiovascular diseases, vs placebo
[20] = single oral dose of 10, 20 and 40 mg

N[C@@H]1CONC1=O [D-cycloserine]
tolerance for memory effects ([1]; after two weeks of daily dosing): tolerance for memory effects develops | learning and memory ([1]; single dose administration): improves learning and memory | cognitive deficits [2]: failed to improve cognitive deficits

CCCOc1ccc(S(=O)(=O)NCCC2CCCN2C)cc1-c1nc2c(CCC)nn(C)c2c(=O)[nH]1 (centres unmarked) [DA-8159]
erectogenic activity [3]: erectogenic activity | intracavernosal pressure [4]: potentiated an increase in intracavernosal pressure in a dose-related manner

Cc1nc2n(c(=O)c1CCN1CCC(c3noc4cc(F)ccc34)CC1)CCCC2 [risperidone]
reduction in relapse rate [5]: 43%

CCCc1nn(C)c2c(=O)[nH]c(-c3cc(S(=O)(=O)N4CCN(C)CC4)ccc3OCC)nc12 [sildenafil]
terminal half-life (in vivo): 3 to 5 h | absolute bioavailability (oral administration): 40% | time to peak plasma concentration (Tmax) (oral, fasting state): 0.5 to 2 h | men with improved erectile function ([6]; men with ischemic heart disease): up to 70% | synergistic effect on blood pressure with antihypertensive agents ([6]; patients not taking organic nitrates, ACE inhibitors, adrenoceptor blockers, calcium channel blockers, diuretics): does not have a synergistic effect on blood pressure | cortical cGMP levels [7]: increase cortical cGMP levels | cGMP levels in brains [8]: normalized cGMP levels | performance on learning tasks [8]: restored performance on learning tasks | retention of object recognition task [9]: significantly improved retention | retention of passive avoidance task [10]: improved retention | acquisition of maze learning [11]: dose-dependently improved acquisition | actual performance (attention / recognition) [12]: did not significantly improve | event-related brain potentials (ERPs) patterns [12]: significantly affected | functional recovery (foot fault test and adhesive removal test) [13]: significantly greater functional recovery | cellular proliferation in the subventricular zone and dentate gyrus ([13]; bromodeoxyuridine labeling): greater cellular proliferation | effect on behavioral effects of dopamine agonists ([14]; 10 mg/kg): antagonized behavioral effects | effect on behavioral effects of dopamine agonists ([14]; single dose 1 mg/kg): enhanced behavioral effects | safety and efficacy for erectile dysfunction [15]: safe and effective | sexual performance [16]: improve sexual performance

CN1CC(=O)N2[C@H](c3ccc4c(c3)OCO4)c3[nH]c4ccccc4c3C[C@@H]2C1=O [tadalafil]
maximum Tmax [17]: 2 h | change in heart rate, standing systolic or diastolic blood pressure [18]: no significant change | incidence of adverse events [19]: no different from that in placebo-treated patients

CCCc1nc(C)c2c(=O)[nH]c(-c3cc(S(=O)(=O)N4CCN(CC)CC4)ccc3OCC)nn12 [vardenafil]
Tmax [20]: 0.7 to 0.9 h
